Key:
[1] = system: aconitine-induced arrythmia in the dog; experiment: Antiarrhythmic action on aconitine-induced arrythmia in the dog (oral administration); assay type: in vivo, dog (male or female mongrel dogs); conditions: for change in vivo at 10 mg/kg: Canis lupus familiaris, po, 1 h, read-out: Prolongation of aconitin infusion period; for prolongation of time before arrhythmias appeared, relative to that obtained with propafenone and diprafenone (times greater): dog, 10 mg/kg, oral
Experimental: Male or female mongrel dogs weighing 12-15 kg were used. The substances to be tested were administered orally, 40 minutes after induction of anesthesia using Na pentobarbital (30 mg/kg i.v.). Cardiac arrhythmias were induced by infusion of aconitine (5 μg per kg per min), the infusion beginning 60 minutes after administration of the substance. In the ECG of untreated animals, arrhythmias (loss or inversion of P, ventricular tachyarrhythmias) occurred after an average infusion time of 6.4±0.29 min.
When the substances according to the invention were administered in a dose of 10 mg/kg, the time which elapsed before arrhythmias appeared was prolonged. […]; the antiarrhythmic activity is higher (Table 1).

in vivo = conditions: mouse, ip, single administration i.p., female NMRI mice, approximate values
[2] = system: arrhythmias after infarct in the conscious dog; experiment: Antiarrhythmic action on arrhythmias after infarct (coronary ligature) in the conscious dog; assay type: in vivo, dog (male and female beagle dogs); conditions: for inhibition of arrhythmias compared with propafenone and diprafenone (in words) / Increase in normal heart actions: oral
Experimental: The substances were also tested with regard to their action on arrhythmias after coronary ligature. This method permits conclusions to be drawn as to the action on arrhythmias after infarct in man. Male and female beagle dogs weighing 9-15 kg were used. The ramus descendens of the left coronary artery was ligatured by a modified method of Harris (Circulation, 1, 1318-1328, 1950). Tachycardic, usually ventricular arrhythmias of various origins resulted which were detectable on the ECG, with P loss QRS deformation and T wave elevation. The measure for determining antiarrhythmic action was the frequency (%) of normal heart actions ascertained during a 100-minute control period at 5-minute intervals. Hearbeats had to be at most 29% of the normal during this control period before a substance was administered. After administration, the ECG was run, as in the control period, for 100 minutes at 5-minute intervals, and then for a further 200 minutes at 10-minute intervals.

Row | SMILES | change in vivo at 10 mg/kg [1] | LD50 (in vivo) | prolongation of time before arrhythmias appeared, relative to that obtained with propafenone and diprafenone (times greater) [1] | inhibition of arrhythmias compared with propafenone and diprafenone (in words) [2] | Increase in normal heart actions ([2]; dose 10.0 mg/kg) | oral dosage rate giving inhibition of arrhythmias as great as propafenone (times less) ([2]; relative to propafenone) | Increase in normal heart actions ([2]; dose 21.5 mg/kg)
1 | CC(C)NCC(O)COc1ccccc1C(=O)CCc1cccn1C (centres unmarked) [Example 3] | 85% | 68.1 mg/kg | – | – | – | – | –
2 | CCCNCC(O)COc1ccccc1C(=O)CCc1cccn1C (centres unmarked) [Example 4] | 70% | 46.4 mg/kg | twice | – | – | – | –
3 | CC(C)N(CC(O)COc1ccccc1C(=O)CCc1cccn1C)C(C)C (centres unmarked) [Example 5] | 85% | 68.1 mg/kg | – | more active than propafenone and diprafenone at the same rate | 66% | – | –
4 | CC(C)NCC(O)COc1ccccc1C(=O)CCc1ccn(C)c1 (centres unmarked) [Example 7] | 193% | 46.4 mg/kg | six times | more active than propafenone and diprafenone at the same rate | 92% | – | –
5 | CCCNCC(O)COc1ccccc1C(=O)CCc1cnn(C)c1 (centres unmarked) [Example 9] | 154% | 31.6 mg/kg | – | inhibited arrhythmias to just as great an extent as propafenone, and to a far greater extent than diprafenone | – | about 5 times less | –
6 | CCC(C)(C)NCC(O)COc1ccccc1C(=O)CCc1cnn(C)c1 (centres unmarked) [Example 12] | 137% | 68.1 mg/kg | – | – | – | – | –
7 | CCC(C)(C)NCC(O)COc1ccccc1C(=O)CCc1ccccc1 (centres unmarked) [diprafenone, 2-[2-hydroxy-3-(1,1-dimethylpropylamino)-propoxy]-ω-phenylpropiophenone, reference compound] | 33% | 68.1 mg/kg | – | – | – | – | 43%
